Source: ChEMBL document CHEMBL1151333, “A new indole derivative from the red alga Chondria atropurpurea. Isolation, structure determination, and anthelmintic activity” (J Nat Prod, 1998)

System: Nippostrongylus brasiliensis
Assay: Anthelmintic activity against Nippostrongylus brasiliensis L4 parasitant on day 5 by double serial dilution model
Assay type: functional, organism-based
Conditions: 120 h

EC50 [µM] | SMILES
2370 | NC(=O)/C=C/c1c[nH]c2ccccc12
300 | COc1cccc2c(/C=C/C(=O)N/C=C/c3cn(C)c4ccccc34)cn(C)c12
260 | O=C(/C=C/c1c[nH]c2ccccc12)N/C=C/c1c[nH]c2ccccc12 [CHONDRIAMIDE A]
90 | O=C(/C=C/c1c[nH]c2ccccc12)N/C=C\c1c[nH]c2ccccc12 [CHONDRIAMIDE C]
